Experimental data reported in patent US20140296528A1, “4-ARYL-1-(BIARYLMETHYLENE) PIPERIDINE COMPOUNDS” (KING ABDULAZIZ CITY FOR SCIENCE AND TECHNOLOGY, priority 2013, published 2014).

system: phencyclidine-induced social interaction deficits; details: background statement on prior-art compounds; cited from earlier work

Compound	oppose phencyclidine-induced social interaction deficits
Fc1ccc(-c2cncc(CN3CCN(c4cccc5c4OCCO5)CC3)c2)cc1 [adoprazine]	failure
O=c1[nH]c2cccc(N3CCN(Cc4cccc(-c5ccccc5)c4)CC3)c2o1 [bifeprunox]	failure

system: not given; details: not given

Compound	melting point [°C]
COc1ccc2cccc(C3CCN(Cc4ccc(-c5ccccc5)cc4)CC3)c2n1 [Compound 3a, 8-(1-(Biphenyl-4-ylmethyl)piperidin-4-yl)-2-methoxyquinoline]	84 to 85
COc1ccc2cccc(C3CCN(Cc4cncc(-c5ccccc5)c4)CC3)c2n1 [Compound 3c, 2-Methoxy-8-(1-((5-phenylpyridin-3-yl)methyl)piperidin-4-yl)quinoline]	135 to 137
COc1ccc2cccc(C3CCN(Cc4cncc(-c5ccc(F)cc5)c4)CC3)c2n1 [Compound 3d, 8-(1-((5-(4-Fluorophenyl)pyridin-3-yl)methyl)piperidin-4-yl)-2-methoxyquinoline]	156 to 158
COc1ccc2cccc(C3CCN(Cc4cccc(C5=CCCC5)c4)CC3)c2n1 [Compound 3e, 8-(1-(3-Cyclopentenylbenzyl)piperidin-4-yl)-2-methoxyquinoline]	125 to 126
O=c1ccc2cccc(C3CCN(Cc4ccc(-c5ccccc5)cc4)CC3)c2[nH]1 [Compound 4a, 8-(1-(Biphenyl-4-ylmethyl)piperidin-4-yl)quinolin-2(1H)-one]	146 to 148
O=c1ccc2cccc(C3CCN(Cc4ccc(-c5ccc(F)cc5)cc4)CC3)c2[nH]1 [Compound 4b, 8-(1-((4′-Fluorobiphenyl-4-yl)methyl)piperidin-4-yl)quinolin-2(1H)-one]	159 to 161
O=c1ccc2cccc(C3CCN(Cc4cncc(-c5ccccc5)c4)CC3)c2[nH]1 [Compound 4c, 8-(1-((5-Phenylpyridin-3-yl)methyl)piperidin-4-yl)quinolin-2(1H)-one]	158 to 160
O=c1ccc2cccc(C3CCN(Cc4cncc(-c5ccc(F)cc5)c4)CC3)c2[nH]1 [Compound 4d, 8-(1-((5-(4-Fluorophenyl)pyridin-3-yl)methyl)piperidin-4-yl)quinolin-2(1H)-one]	161 to 163
O=c1ccc2cccc(C3CCN(Cc4cccc(C5=CCCC5)c4)CC3)c2[nH]1 [Compound 4e, 8-(1-(3-Cyclopentenylbenzyl)piperidin-4-yl)quinolin-2(1H)-one]	123 to 125
O=c1ccc2cccc(C3CCN(Cc4cncc(C5=CCCC5)c4)CC3)c2[nH]1 [Compound 4f, 8-(1-((5-Cyclopentenylpyridin-3-yl)-methyl)piperidin-4-yl)quinolin-2(1H)-one]	133 to 135
O=C1CCc2cccc(C3CCN(Cc4ccc(-c5ccccc5)cc4)CC3)c2N1 [Compound 5a, 8-(1-(Biphenyl-4-ylmethyl)piperidin-4-yl)-3,4-dihydroquinolin-2(1H)-one]	116 to 118
O=C1CCc2cccc(C3CCN(Cc4ccc(-c5ccc(F)cc5)cc4)CC3)c2N1 [Compound 5b, 8-(1-((4′-Fluorobiphenyl-4-yl)methyl)piperidin-4-yl)-3,4-dihydroquinolin-2(1H)-one]	132 to 134
O=C1CCc2cccc(C3CCN(Cc4cncc(-c5ccc(F)cc5)c4)CC3)c2N1 [Compound 5d, 8-(1-((5-(4-Fluorophenyl)pyridin-3-yl)methyl)piperidin-4-yl)-3,4-dihydroquinolin-2(1H)-one]	136 to 138
O=C1CCc2cccc(C3CCN(Cc4cccc(C5=CCCC5)c4)CC3)c2N1 [Compound 5e, 8-(1-(3-Cyclopentenylbenzyl)piperidin-4-yl)-3,4-dihydroquinolin-2(1H)-one]	115 to 117
O=C1CCc2cccc(C3CCN(Cc4cncc(C5=CCCC5)c4)CC3)c2N1 [Compound 5f, 8-(1-((5-cyclopentenylpyridin-3-yl)methyl)piperidin-4-yl)-3,4-dihydroquinolin-2(1H)-one]	123 to 125
